Measurements from patent US7592457B2 (Korea Research Institute of Chemical Technology, priority 2004, dated 2009).
Like-named read-outs stand apart in the source and are kept apart here.

What was measured:
[1] = biological target: T1, 5-HT2a (Homo sapiens, UniProt P28223); assay: Radioligand binding, 5-HT2a ([3H]Ketanserin); conditions: read-out: Binding affinity (Inhibition rate % at 10 μM) 5HT2a
T1 construct: purchased Euroscreen/BioSignal Packard Inc
Experimental: (§1) Radioligand bindings were performed according to the test method provided by the supplier of receptor membrane (Euroscreen/BioSignal Packard Inc.).

[2] = biological target: T2, 5-HT1a (Homo sapiens, UniProt P08908); assay: Radioligand binding, 5-HT1a ([3H]8-OH-DPAT); conditions: read-out: Binding affinity (Inhibition rate % at 10 μM) 5HT1a
T2 construct: purchased Euroscreen/BioSignal Packard Inc
T2 sequence (P08908 1-422): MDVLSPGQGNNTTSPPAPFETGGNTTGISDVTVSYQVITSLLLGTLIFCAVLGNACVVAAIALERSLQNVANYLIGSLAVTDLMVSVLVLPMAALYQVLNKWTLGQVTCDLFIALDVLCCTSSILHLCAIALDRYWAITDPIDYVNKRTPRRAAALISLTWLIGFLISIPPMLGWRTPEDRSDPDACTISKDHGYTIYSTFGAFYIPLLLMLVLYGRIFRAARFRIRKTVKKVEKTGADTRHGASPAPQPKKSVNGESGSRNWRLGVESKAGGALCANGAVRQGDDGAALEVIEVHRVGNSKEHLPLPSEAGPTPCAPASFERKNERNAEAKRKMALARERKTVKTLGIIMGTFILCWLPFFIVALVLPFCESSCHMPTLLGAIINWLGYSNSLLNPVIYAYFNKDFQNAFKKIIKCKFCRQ
Experimental: as §1

[3] = biological target: D1 (Homo sapiens, UniProt P21728); assay: Radioligand binding for selectivity, D1; conditions: read-out: Binding affinity (Inhibition rate % at 10 μM) D1
[4] = biological target: T3, 5-HT7 (Homo sapiens, UniProt P34969); assay: Radioligand binding, 5-HT7 ([3H]LSD); conditions: read-out: Binding affinity (Inhibition rate % at 10 μM) 5HT7
T3 construct: purchased Euroscreen/BioSignal Packard Inc
Experimental: as §1

[5] = biological target: T4, hD4.2 receptor (Homo sapiens, UniProt P21917, DEL265-296); assay: Radioligand binding, dopamine D4 ([3H]YM-09151-2); conditions: read-out: Binding affinity (Inhibition rate % at 10 μM) D4
T4 construct: purchased BioSignal Packard Inc., Montreal, Canada
T4 sequence (P21917 with tags, fused parts or gaps DEL265-296): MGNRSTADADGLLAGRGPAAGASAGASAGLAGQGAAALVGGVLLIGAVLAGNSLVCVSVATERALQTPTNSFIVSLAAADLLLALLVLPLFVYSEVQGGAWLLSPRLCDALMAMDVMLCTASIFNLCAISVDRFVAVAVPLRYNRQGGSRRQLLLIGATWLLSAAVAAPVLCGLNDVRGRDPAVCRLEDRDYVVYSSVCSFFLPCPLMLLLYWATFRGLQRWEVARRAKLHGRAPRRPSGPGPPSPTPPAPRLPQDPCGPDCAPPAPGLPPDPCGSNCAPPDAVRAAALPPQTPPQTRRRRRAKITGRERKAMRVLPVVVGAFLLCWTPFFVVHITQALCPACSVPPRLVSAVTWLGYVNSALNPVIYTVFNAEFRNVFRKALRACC
Experimental: (§2) The radioligands used were [^3H] spiperone (for hD2L and hD3 receptors, 1 nM) and [^3H] YM-09151-2 (for hD4.2 receptor, 0.06 nM). Radioligand bindings were performed by the protocols provided by the supplier of receptor membranes (BioSignal Packard Inc., Montreal, Canada). Briefly, the buffer used in D2 or D3 receptor binding assay was 50 mM Tris-HCl (pH 7.4), 10 mM MgCl2, 1 mM EDTA, or 50 mM Tris-HCl (pH 7.4), 5 mM MgCl2, 5 mM EDTA, 5 mM KCl, 1.5 mM CaCl2, 120 mM NaCl, respectively. In [^3H] YM-09151-2 receptor binding assays, the buffer containing 50 mM Tris-HCl (pH 7.4), 5 mM MgCl2, 5 mM EDTA, 5 mM KCl and 1.5 mM CaCl2 was used. Nonspecific binding was determined with haloperidol (10 μM) or clozapine (10 μM) for D2 and D3, and D4 receptors, respectively. Competition binding studies were carried out with 7-8 concentrations of the test compound run in duplicate tubes, and isotherms from three assays were calculated by computerized nonlinear regression analysis (GraphPad Prism Program, San Diego, […]) to yield median inhibitory concentration (IC50) values.

[6] = biological target: T5, hD2L receptor (Homo sapiens, UniProt P14416); assay: Radioligand binding, dopamine D2 ([3H]spiperone); conditions: read-out: Binding affinity (Inhibition rate % at 10 μM) D2
T5 construct: purchased BioSignal Packard Inc., Montreal, Canada
Experimental: as §2

[7] = biological target: T6, human serotonin 5-HT6 receptor (Homo sapiens, UniProt P50406); assay: [3H]LSD binding at cloned 5-HT6 receptors; conditions: for inhibition at 10 µM: read-out: Binding affinity (Inhibition rate % at 10 μM) 5HT6
T6 construct: made in house; host or cells: Sf21 insect cells (pBacPAK8 baculovirus vector)

[8] = biological target: T7, 5-HT2c (Homo sapiens, UniProt P28335); assay: Radioligand binding, 5-HT2c ([3H]Mesulergine); conditions: read-out: Binding affinity (Inhibition rate % at 10 μM) 5HT2c
T7 construct: purchased Euroscreen/BioSignal Packard Inc
T7 sequence (P28335 33-458): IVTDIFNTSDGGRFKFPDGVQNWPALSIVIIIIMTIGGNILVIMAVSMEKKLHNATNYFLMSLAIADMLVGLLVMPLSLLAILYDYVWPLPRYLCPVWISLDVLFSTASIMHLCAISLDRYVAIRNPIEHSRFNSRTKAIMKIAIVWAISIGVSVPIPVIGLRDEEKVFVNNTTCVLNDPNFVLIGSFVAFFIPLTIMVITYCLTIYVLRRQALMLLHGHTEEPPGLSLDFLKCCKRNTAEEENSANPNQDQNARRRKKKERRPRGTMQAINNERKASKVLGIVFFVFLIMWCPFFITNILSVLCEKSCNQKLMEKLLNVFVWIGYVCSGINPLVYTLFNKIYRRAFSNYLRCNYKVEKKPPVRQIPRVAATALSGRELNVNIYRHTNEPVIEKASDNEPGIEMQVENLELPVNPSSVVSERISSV
Experimental: as §1

[9] = biological target: T8, hD3 receptor (Homo sapiens, UniProt P35462); assay: Radioligand binding, dopamine D3 ([3H]spiperone); conditions: read-out: Binding affinity (Inhibition rate % at 10 μM) D3
T8 construct: purchased BioSignal Packard Inc., Montreal, Canada
Experimental: as §2

[10] = [3H]LSD 1.87 nM, cloned receptor membranes, 37° C., 60 min, read-out: IC50

T6 sequence (P50406 whole entry): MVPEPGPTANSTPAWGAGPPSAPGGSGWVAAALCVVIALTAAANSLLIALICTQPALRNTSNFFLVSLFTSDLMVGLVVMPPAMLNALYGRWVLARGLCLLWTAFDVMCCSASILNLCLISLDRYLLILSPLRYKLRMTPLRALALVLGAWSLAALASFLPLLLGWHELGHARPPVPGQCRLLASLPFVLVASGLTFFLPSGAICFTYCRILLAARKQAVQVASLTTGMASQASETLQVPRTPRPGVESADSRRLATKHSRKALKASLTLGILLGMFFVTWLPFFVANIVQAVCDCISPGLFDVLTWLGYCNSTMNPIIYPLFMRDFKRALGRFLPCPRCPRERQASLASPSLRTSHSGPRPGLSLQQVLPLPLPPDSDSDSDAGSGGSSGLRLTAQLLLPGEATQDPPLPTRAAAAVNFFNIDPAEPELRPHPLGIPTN
T8 sequence (P35462 whole entry): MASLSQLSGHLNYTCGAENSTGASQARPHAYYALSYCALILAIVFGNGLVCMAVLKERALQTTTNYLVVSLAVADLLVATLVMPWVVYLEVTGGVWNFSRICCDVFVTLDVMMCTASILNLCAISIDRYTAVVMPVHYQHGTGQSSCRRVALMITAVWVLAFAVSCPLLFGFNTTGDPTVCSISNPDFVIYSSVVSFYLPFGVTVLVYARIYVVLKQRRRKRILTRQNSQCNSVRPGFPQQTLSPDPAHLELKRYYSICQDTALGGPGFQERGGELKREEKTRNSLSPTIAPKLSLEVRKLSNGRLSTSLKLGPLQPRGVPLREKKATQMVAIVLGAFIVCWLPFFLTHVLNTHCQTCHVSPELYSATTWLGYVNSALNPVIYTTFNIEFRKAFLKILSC
D1, sequence (P21728 whole entry): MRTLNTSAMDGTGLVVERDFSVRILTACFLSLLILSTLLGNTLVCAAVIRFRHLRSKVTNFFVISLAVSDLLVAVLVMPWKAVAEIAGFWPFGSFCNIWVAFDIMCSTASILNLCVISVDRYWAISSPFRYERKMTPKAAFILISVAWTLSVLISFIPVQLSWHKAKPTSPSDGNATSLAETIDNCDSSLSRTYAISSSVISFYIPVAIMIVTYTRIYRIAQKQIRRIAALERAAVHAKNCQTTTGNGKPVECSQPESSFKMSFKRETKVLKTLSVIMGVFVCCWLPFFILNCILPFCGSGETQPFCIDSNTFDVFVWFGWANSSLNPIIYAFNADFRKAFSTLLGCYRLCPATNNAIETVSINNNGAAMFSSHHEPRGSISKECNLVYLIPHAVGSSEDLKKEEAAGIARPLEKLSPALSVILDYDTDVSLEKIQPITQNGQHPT
T5 sequence (P14416 whole entry): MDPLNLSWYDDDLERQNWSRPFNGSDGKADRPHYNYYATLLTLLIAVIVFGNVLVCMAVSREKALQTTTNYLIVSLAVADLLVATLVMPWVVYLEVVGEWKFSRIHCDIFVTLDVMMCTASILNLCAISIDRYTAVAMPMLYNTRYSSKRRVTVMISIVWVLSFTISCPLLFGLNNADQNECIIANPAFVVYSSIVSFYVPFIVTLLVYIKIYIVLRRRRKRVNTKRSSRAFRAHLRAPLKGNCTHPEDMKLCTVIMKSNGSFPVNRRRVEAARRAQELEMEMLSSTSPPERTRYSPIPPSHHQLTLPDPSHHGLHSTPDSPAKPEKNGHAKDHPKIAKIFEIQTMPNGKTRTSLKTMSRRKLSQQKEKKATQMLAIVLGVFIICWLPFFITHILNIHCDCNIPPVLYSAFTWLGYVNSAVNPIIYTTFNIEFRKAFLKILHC
T3 sequence (P34969 whole entry): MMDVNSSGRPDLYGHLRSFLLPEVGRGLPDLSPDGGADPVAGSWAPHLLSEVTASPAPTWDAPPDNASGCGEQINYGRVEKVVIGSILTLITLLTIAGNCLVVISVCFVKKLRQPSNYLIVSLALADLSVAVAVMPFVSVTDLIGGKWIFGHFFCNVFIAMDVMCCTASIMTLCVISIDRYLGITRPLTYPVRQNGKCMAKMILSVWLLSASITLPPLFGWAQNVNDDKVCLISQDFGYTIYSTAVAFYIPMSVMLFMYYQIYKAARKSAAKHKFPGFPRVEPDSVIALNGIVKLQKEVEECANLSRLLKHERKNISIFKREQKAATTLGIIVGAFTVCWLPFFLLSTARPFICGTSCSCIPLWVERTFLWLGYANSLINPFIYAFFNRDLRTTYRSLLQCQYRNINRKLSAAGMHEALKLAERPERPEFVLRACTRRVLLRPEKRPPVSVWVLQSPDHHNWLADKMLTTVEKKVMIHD
T1 sequence (P28223 whole entry): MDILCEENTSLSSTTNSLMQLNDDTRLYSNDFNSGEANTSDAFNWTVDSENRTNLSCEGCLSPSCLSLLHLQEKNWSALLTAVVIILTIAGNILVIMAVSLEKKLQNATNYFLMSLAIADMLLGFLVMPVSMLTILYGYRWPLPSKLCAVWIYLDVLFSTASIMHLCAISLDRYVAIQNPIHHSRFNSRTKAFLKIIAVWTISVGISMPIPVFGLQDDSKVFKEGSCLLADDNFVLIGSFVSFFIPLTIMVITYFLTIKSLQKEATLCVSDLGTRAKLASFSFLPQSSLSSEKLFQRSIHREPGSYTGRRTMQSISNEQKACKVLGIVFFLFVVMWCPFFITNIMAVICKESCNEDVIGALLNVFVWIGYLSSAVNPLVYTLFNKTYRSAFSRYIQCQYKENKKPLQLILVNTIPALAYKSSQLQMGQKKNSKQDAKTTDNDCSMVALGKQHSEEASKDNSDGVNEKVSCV

Compound | inhibition at 10 µM [1] [%] | inhibition at 10 µM [2] [%] | inhibition at 10 µM [3] [%] | inhibition at 10 µM [4] [%] | inhibition at 10 µM [5] [%] | inhibition at 10 µM [6] [%] | IC50 [7, 10] [nM] | inhibition at 10 µM [7] [%] | inhibition at 10 µM [8] [%] | melting point [°C] | inhibition at 10 µM [9] [%] | 5-HT6 affinity compared with known selective antagonists ([7]; in words) | IC50 [7] [nM]
CN(C)c1ccc(C2(C)C(=O)Nc3cc(Cl)cc(Cl)c3C2=O)cc1 (stereo not drawn) [Example 40, 5,7-dichloro-3-(4-dimethylamino-phenyl)-3-methyl-1H-quinoline-2,4-dione] | 42.2 | 50.2 | 40.8 | 30.3 | 0 | 10.5 | 563 | 67.2 | 6.5 | 268 to 269 | 4.5 | – | –
COc1ccc(C2(C)C(=O)Nc3cc(Cl)cc(Cl)c3C2=O)cc1 (stereo not drawn) [Example 12, 5,7-dichloro-3-(4-methoxy-phenyl)-3-methyl-1H-quinoline-2,4-dione] | 8.5 | 40.2 | 15.7 | 23.1 | 0 | 16.3 | 917 | 73.3 | 5.7 | 210 to 212 | 24 | almost same affinities as or better affinities than known selective antagonists | –
C[C@H](NC(=O)Oc1ccc(C2(C)C(=O)Nc3cc(Cl)cc(Cl)c3C2=O)cc1)c1ccccc1 (stereo partly drawn) [Example 25] | 16.7 | 35.9 | 54.1 | 30.6 | 0 | 8.4 | – | 69.8 | 4 | 110 to 115 | 10.2 | – | 816
CC1(c2ccccc2)C(=O)Nc2cc(Cl)ccc2C1=O (stereo not drawn) [Example 3, 7-chloro-3-methyl-3-phenyl-1H-quinoline-2,4-dione] | 12 | 40.2 | 25.5 | 7 | 0 | 4.9 | 2470 | 69 | 8.9 | 174 to 175 | 10.9 | – | –
CC1(c2ccc(O)c([N+](=O)[O-])c2)C(=O)Nc2cc(Cl)cc(Cl)c2C1=O (stereo not drawn) [Example 22, 5,7-dichloro-3-(4-hydroxy-3-nitro-phenyl)-3-methyl-1H-quinoline-2,4-dione] | 50.9 | 68.7 | 35.7 | 36.3 | 0 | 11.2 | 1010 | 72.5 | 2.5 | 239 to 240 | 34 | – | –
COc1ccc(C2(C)C(=O)Nc3cc(OC)cc(Cl)c3C2=O)cc1 (stereo not drawn) [Example 35, 5-chloro-7-methoxy-3-(4-methoxy-phenyl)-3-methyl-1H-quinoline-2,4-dione] | 20.7 | 52.3 | 43.1 | 22.4 | 1.7 | 5.1 | 1360 | 69.1 | 16.4 | 222 to 224 | 6.4 | – | –
CC1(c2ccc(O)c(O)c2)C(=O)Nc2ccccc2C1=O (stereo not drawn) [Example 32, 3-(3,4-dihydroxy-phenyl)-3-methyl-1H-quinoline-2,4-dione] | 26.9 | 13.5 | 39 | 20.1 | 0 | 16 | 769 | 71 | 31.9 | 259 to 261 | 12.6 | – | –
